In data set [1] the test system is Liver cancer cell line HepG2. Nature of the data set: IC50 determination of Apatinib+Sotagliflozin combination on HepG2. Format: cell-based. The following applies: Homo sapiens, single agent, cell survival rate after 2 h incubation, read-out: IC50 value on HepG2 cells. An excerpt:
After obtaining the effectiveness of […] in Example 1, the present disclosure further validated another VEGFR-targeting TKI drug, Apatinib. According to the tissue distribution characteristics of VEGFR and SGLT1/2, the targets of Apatinib and Sotagliflozin, the followings cells were selected for experimental verification: liver cancer cell line HepG2; colorectal cancer cell line LoVo, HT29, SW620, SW480; cervical cancer HeLa; ovarian cancer SKOV3; gastric cancer NGC27; cholangiocarcinoma RBE; esophageal cancer KYSE3. After growing to 80% density, the cells were trypsinized, passaged and plated in a 96-well plate with 5000 cells per well. […] After 48 hours, the absorbance at each concentration was detected by the MTT method. […]
Apatinib test group (FIG. 4-b-1): cells were treated by adding Apatinib alone at 6 different concentrations, 0 μM, 5 μM, 10 μM, 20 μM, 30 μM and 40 μM, respectively, to the culture medium, and cell survival rate was measured after 2 h incubation.
Sotagliflozin test group (FIG. 4-b-2): cells were treated by adding Sotagliflozin alone at 7 different concentrations, 0 μM, 20 μM, 30 μM, 40 μM, 60 μM, 80 μM and 100 μM respectively, to the culture medium, and cell survival rate was measured after 2 h incubation. […]

The test system of data set [2] is liver cancer cell line HepG2; colorectal cancer cell line LoVo, HT29, SW620, SW480. Nature of the data set: MTT cell growth inhibition, Apatinib alone and with Sotagliflozin. Format: cell-based. Conditions: Apatinib alone 5-30 μM, 48 hours, FIG. 4-a-1 to 4-a-5. An excerpt:
After obtaining the effectiveness of […] in Example 1, the present disclosure further validated another VEGFR-targeting TKI drug, Apatinib. According to the tissue distribution characteristics of VEGFR and SGLT1/2, the targets of Apatinib and Sotagliflozin, the followings cells were selected for experimental verification: liver cancer cell line HepG2; colorectal cancer cell line LoVo, HT29, SW620, SW480; cervical cancer HeLa; ovarian cancer SKOV3; gastric cancer NGC27; cholangiocarcinoma RBE; esophageal cancer KYSE3. After growing to 80% density, the cells were trypsinized, passaged and plated in a 96-well plate with 5000 cells per well. After 24 hours, the medium was replaced with a medium containing the corresponding concentration of Apatinib, Sotagliflozin, or the combination of Apatinib and Sotagliflozin. After 48 hours, the absorbance at each concentration was detected by the MTT method. The experiment included the following groups: Control group: cells were cultured in normal culture medium without drug added. […] The cell growth inhibition rate is calculated by dividing the absorbance value at each concentration by the absorbance value of the control group. […] In the figure, the concentration of Apatinib is taken as the abscissa and the cell growth inhibition rate is taken as the ordinate.

Data set [3] has as its system lung cancer A549 cells. Nature of the data set: A549 xenograft tumor treatment trial in nude mice. It counts as in vivo, Balbc nude mice. The following applies: for Average tumor volume: in mm³ (unit assumed). On the procedure: After growing to the logarithmic phase, A549 cells were collected and resuspended in serum-free DMEM medium to 5×10^7 cells per ml. Each mouse was inoculated with 100 μl of 5×10^6 cells, and the tumor size was measured 19 days later. Mice were grouped according to the tumor size, and the average tumor size in each group was the same. Mice were administered after grouping. […] The dosage of Gefitinib was 100 mg per kilogram according to the reported dose for the treatment of A549 xenografts in previous studies. The two drugs were administered by gavage, consistent with the current oral mode in clinical use. The dosing cycle was once every two days. The tumor size was measured every two days. After 40 days of administration, the test was ended, and the tumor was removed and weighed.

Data set [4] relates to lung cancer A549 cells. Nature of the data set: Trypan blue staining of A549 cells treated with Gefitinib in sugar-free and sugar-containing medium. Conditions: 20 μM Gefitinib, 48 hours. It counts as cell-based. On the procedure:
[…]. A549 cells were grown to 80% density, passed, resuspended in a normal medium (25 mM glucose) to a concentration of 4×10^5 cells per ml, and plated in a 24-well plate with 1 ml per well. After 24 hours, the medium was changed to sugar-free medium (0 mM glucose) and normal medium, respectively, and added with Gefitinib for treating the cell. After 48 hours, the medium was discarded, and 1 ml of 1×PBS was added to wash once, and 1 ml of 1×Trypan Blue was added to each well for staining for 10 minutes. Then, the trypan blue staining solution was aspirated, and the plate was washed three times by adding 1 ml of 1×PBS, and photographed under a light microscope. […] […]. […] According to the background section, cancer cells mainly rely on the SGLT family of proteins to absorb sugar. Therefore, the present disclosure relates use of a composition comprising dual inhibitor Sotagliflozin of SGLT1 and SGLT2, the two most important members of the SGLT family highly expressed in cancer cells, and a tyrosine kinase inhibitor in the manufacture of a medicament for treating cancer.
. Based on the previous findings illustrated in FIG. 1, Sotagliflozin was purchased from Selleck Chemicals for growth inhibition test of cancer cell in vitro. […] Therefore, the concentration of Sotagliflozin used in the subsequent compositions of this experiment were lower than 80 μM to avoid affecting normal cells.

The subject of data set [5] is liver cancer HepG2 cells, colorectal cancer LoVo, HT29, DLD1, SW480, and HCT116 cells. Briefly: Growth inhibition by Lenvatinib alone and with Sotagliflozin in a variety of cell lines. Format: cell-based. Conditions: addition of Sotagliflozin at a safe dose; FIG. 5. The source says: Therefore, the effect of the combination in the safe concentration range of Sotagliflozin is better than the effect of each single agent. It is worth mentioning that the ability of Sotagliflozin in the combination to enhance the efficacy of VEGFR-targeting TKI drugs is not limited to a single drug of Apatinib.

Data set [6] deals with normal human umbilical cord epithelial cells. Briefly: Determination of the safe concentration of Sotagliflozin on normal cells. It counts as cell-based. On the procedure: The killing effect of Gefitinib on lung cancer A549 cells cultured in sugar-free medium and sugar-containing medium 48 hours after treating A549 cells with 20 μM Gefitinib, trypan blue staining was used to distinguish live cells from dead cells which were stained blue by trypan blue. Based on the previous findings illustrated in FIG. 1, Sotagliflozin was purchased from Selleck Chemicals for growth inhibition test of cancer cell in vitro. […] Therefore, the concentration of Sotagliflozin used in the subsequent compositions of this experiment were lower than 80 μM to avoid affecting normal cells.

Data set [7] relates to Lung cancer cell line A549. Briefly: IC50 determination of EGFR inhibitor + Sotagliflozin combination on A549. Conditions: Homo sapiens, single agent, cell survival rate after 1 h incubation, read-out: IC50 value on A549 cells. It counts as cell-based. On the procedure: After growing to 80% density, the cells were trypsinized, passaged and plated in a 96-well plate with 5000 cells per well. After 24 hours, the medium was replaced with a medium containing the corresponding concentration of drug. After 48 hours, the absorbance at each concentration was detected by the MTT method.

The mark [8] stands for this setting: A549 tumor-bearing mice, gavage once every two days, 40 days, Sotagliflozin 30 mg/kg, Gefitinib 100 mg/kg.

The text below walks through data of patent publication US12048711B2, “Composition and use thereof in the manufacture of medicament for treating cancer” (priority 2020, dated 2024).

In the case of `N#CC1(c2ccc(NC(=O)c3cccnc3NCc3ccncc3)cc2)CCCC1` [Apatinib], the IC50 in data set [1] came to 46 µM. In data set [2], the “inhibitory effect on tumor cells (cell growth inhibition rate)” value is listed as “limited”.

As for `COc1cc2ncnc(Nc3ccc(F)c(Cl)c3)c2cc1OCCCN1CCOCC1` [Gefitinib], in the data set on lung cancer A549 cells [3] (mouse, in vivo), the “Tumor volume ratio of each group to the control group” value is recorded as 0.4881, the effectiveness evaluation entry is “ineffective” and the Average tumor volume is recorded as 504.8. Besides, the “trypan blue staining (dead cells stained blue)” value in the data set on lung cancer A549 cells [4] (normal medium (25 mM glucose)) was “almost no blue coloration”. Further, the “trypan blue staining (dead cells stained blue)” value in the data set on lung cancer A549 cells [4] (sugar-free medium (0 mM glucose)) is given as “almost all colored blue, indicating dead cells”.

As to `COc1cc2nccc(Oc3ccc(NC(=O)NC4CC4)c(Cl)c3)c2cc1C(N)=O` [Lenvatinib], in data set [5], the “effect of adding Sotagliflozin on inhibitory effect of Lenvatinib” value was “enhanced the inhibitory effect”.

With `CCOc1ccc(Cc2cc([C@@H]3O[C@H](SC)[C@@H](O)[C@H](O)[C@H]3O)ccc2Cl)cc1` [Sotagliflozin], in data set [6], the “concentration mainly exhibiting cell growth inhibition effect” value was “lower than 80 μM” and the “concentration producing great cytotoxicity” value is recorded as “higher than 80 μM”. Further, in data set [1], the IC50 was found to be 116 µM. In addition, the “inhibition of tumor growth (in words)” value with lung cancer A549 cells [3] (A549 tumor-bearing mice, FIG. 7-a to 7-c) is “can inhibit tumor growth”. In the data set with lung cancer A549 cells [3] (setting [8]), the “Tumor growth inhibition rate” value came to 58.4%, the “Tumor volume ratio of each group to the control group” value worked out at 0.416 and the Average tumor volume was 430.3. In the data set on lung cancer A549 cells [3] (effective if tumor growth inhibition rate greater than 60% and p value less than 0.05), the effectiveness evaluation result was “ineffective”. Also, the IC50 in data set [7] came out at 73 µM.

A word on the IC50: it is the concentration at which inhibition is half-maximal.
